Test [1] has as its target interaction between PD-1 and PD-L1 (Homo sapiens (Human), UniProt Q9NZQ7). In words: PD1-PDL1 HTRF binding activity test (Cisbio PD-1/PD-L1 binding assay kit). The conditions noted are these: read-out: PD1-PDL1 HTRF Binding Activity IC50. As to the method:
A. PD1-PDL1 HTRF Binding Activity Test
The effect of compounds and positive compounds of the examples of the present invention on the interaction between PD-1 and PD-L1 was determined by the PD-1/PD-L1 binding assay kit from Cisbio (#64ICP01PEG or 64ICP01PEH). The detailed experimental process was as follows:
1. Pre-diluted compound solution, 4 μL of Tag1-PD-L1 and 4 μL of Tag2-PD1 were added to each well of a 384-well plate;
3. After incubated for 2 hrs at room temperature or overnight at 4° C., plates were read on Envision of Pelkin Elmer; and readings at 665 nm and 620 nm were recorded, and the ratio of the two readings was taken as a reading for each well;
4. The reading of each well after compound treatment was compared with the reading of DMSO treated wells to obtain the percent inhibition of the compound; and
5. IC50 values of compounds and positive compounds of the examples of the present invention were determined by non-linear regression analysis of percent inhibition at different compound concentrations.

Test [2] has as its target interaction between PD-1 and PD-L1 expressed on cell surfaces (Homo sapiens (Human), UniProt Q9NZQ7). In words: Jurkat reporter gene cellular assay (Jurkat/NF-κB-luc/PD1 cells cocultured with Raji-PD-L1 cells, OKT-3 stimulation). It is filed as cell-based. The conditions noted are these: NF-κB-luc reporter activation fold, 6 hrs; read-out: Cell Activity EC50. As to the method: B. Jurkat Reporter Gene Cellular Assay
The effect of compounds of the examples of the present invention and positive compounds on the interaction between PD-1 and PD-L1 expressed on cell surfaces, and the related influence on T cell functions, were determined by a Jurkat reporter gene cellular assay.
Briefly, the reporter gene plasmid of NF-κB-luc and the plasmid of human PD-1 were transfected into Jurkat cells to establish a stably transfected cell line capable of stably expressing both PD-1 and NF-κB-Luc reporter genes; the expression level of PD-1 on the cell surface was confirmed by flow cytometry: and the expression of the reporter gene was confirmed via the response of the reporter gene stimulated by OKT-3 and Raiji cells.
In addition, the plasmid of human PD-L1 was transfected into Raji cells to obtain a cell line capable of stably expressing PD-L1. Jurkat/NF-κB-luc/PD1 cells and Raji-PD-L1 cells were then cocultured and stimulated with OKT-3. On this basis, the compounds were added, and the enhancement of the signal pathway of T cell activation by the inhibitory effect of the compounds on the interaction between PD-1 and PD-L1 was evaluated by readings of reporter gene responses. The specific experimental process was as follows:
2. 20 μL of Raji-PD-L1 cell suspension was added to each well with 5*10^4 cells for each well, and was incubated in an incubator for 20 min;
3. 20 μL of Jurkat/NF-κb-luc/PD-1 cell suspension was added to each well with 5*10^4 cells for each well, and well mixed, and 6 hrs later, Bright-glo (Promega, E2620) was applied and plates were read on Envision;
4. the reading of each well treated with the compound was compared with the reading of each well treated with DMSO to obtain the activation fold of the compound; and
5. EC50 values of compounds and positive compounds of the examples of the present invention were determined by non-linear regression analysis of activation folds at different compound concentrations.

Each structure is given as a SMILES string. pEC50, pIC50: −log10 of the molar value.

Chain of interaction between PD-1 and PD-L1 expressed on cell surfaces (Q9NZQ7 19-290): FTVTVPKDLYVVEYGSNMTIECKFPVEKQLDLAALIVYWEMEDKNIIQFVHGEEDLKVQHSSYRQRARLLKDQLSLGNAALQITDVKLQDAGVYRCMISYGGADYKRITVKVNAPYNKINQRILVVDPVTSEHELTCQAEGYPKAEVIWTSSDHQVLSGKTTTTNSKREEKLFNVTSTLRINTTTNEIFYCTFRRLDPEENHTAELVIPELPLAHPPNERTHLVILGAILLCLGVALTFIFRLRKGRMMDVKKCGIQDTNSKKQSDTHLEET
Chain of interaction between PD-1 and PD-L1 (Q9NZQ7 19-238): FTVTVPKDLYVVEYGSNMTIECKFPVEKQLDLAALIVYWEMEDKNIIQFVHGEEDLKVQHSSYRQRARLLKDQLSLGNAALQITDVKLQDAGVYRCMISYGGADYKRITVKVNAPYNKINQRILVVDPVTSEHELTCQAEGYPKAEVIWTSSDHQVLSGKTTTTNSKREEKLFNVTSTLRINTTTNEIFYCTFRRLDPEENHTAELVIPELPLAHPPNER

As to `COc1cc(C(=O)Nc2cccc(-c3cccc(NC(=O)c4cc(OC)c(CN[C@H](CO)C(=O)O)cn4)c3C)c2C)ncc1CN[C@H](CO)C(=O)O` [Example 2, (2R,2′R)-2,2′-((((((2,2′-dimethyl-[1,1′-biphenyl]-3,3′-diyl)bis (azanediyl))bis(carbonyl))bis(4-methoxypyridine-6,3-diyl))bis(methylene))bis (azanediyl))bis(3-hydroxypropanoic acid)], the pIC50 in test [1] was 9.74. Further, in test [2], the pEC50 is 6.96.
For `Cc1c(NC(=O)c2ccc(CN[C@H](CO)C(=O)O)cn2)cccc1-c1cccc(NC(=O)c2ccc(CN[C@H](CO)C(=O)O)cn2)c1C` [Example 6, (2R,2′R)-2,2′-((((((2,2′-dimethyl[1,1′-biphenyl]-3,3′-diyl)bis(azanediyl))bis(carbonyl))bis(pyridine-6,3-diyl))bis(methylene))bis(azanediyl))bis (3-hydroxypropanoic acid)], in that order: 9.10 and 6.18.
For `COCCNCc1cnc(C(=O)Nc2cccc(-c3cccc(NC(=O)c4cc(C)c(CNCCOC)cn4)c3C)c2C)cc1C` [Example 7, N,N′-(2,2′-dimethyl-[1,1′-biphenyl]-3,3′-diyl)bis(5-(((2-methoxyethyl)amino)methyl)-4-methylpicolinamide)], in that order: 10.02 and 6.86.
Consider `Cc1cc(C(=O)Nc2cccc(-c3cccc(NC(=O)c4cc(C)c(CN5CCOCC5)cn4)c3C)c2C)ncc1CN1CCOCC1` [Example 9, N,N′-(2,2′-dimethyl-[1,1′-biphenyl]-3,3′-diyl)bis(4-methyl-5-(morpholinomethyl)picolinamide)], for which the pIC50 in test [1] is 8.42. Moreover, the pEC50 in test [2] was under 5.00.
On to `Cc1cc(C(=O)Nc2cccc(-c3cccc(NC(=O)c4cc(C)c(CNCC5(O)CC5)cn4)c3C)c2C)ncc1CNCC1(O)CC1` [Example 10, N,N′-(2,2′-dimethyl-[1,1′-biphenyl]-3,3′-diyl)bis(5-((((1-hydroxycyclopropyl)methyl)amino)methyl)-4-methylpicolinamide)], for which the pIC50 in test [1] was 9.55. In addition, in test [2], the negative logarithm of the EC50 (pEC50) was 7.30.
As for `Cc1cc(C(=O)Nc2cccc(-c3cccc(NC(=O)c4cc(C)c(CN5CC(C)(O)C5)cn4)c3C)c2C)ncc1CN1CC(C)(O)C1` [Example 11, N,N′-(2,2′-dimethyl-[1,1′-biphenyl]-3,3′-diyl)bis(5-((3-hydroxy-3-methylazetidin-1-yl)methyl)-4-methylpicolinamide)], the negative logarithm of the IC50 (pIC50) in test [1] was 9.22. Moreover, in test [2], the pEC50 was 6.87.
For `Cc1cc(C(=O)Nc2cccc(-c3cccc(NC(=O)c4cc(C)c(CN5CCCC5)cn4)c3C)c2C)ncc1CN1CCCC1` [Example 12, N,N′-(2,2′-dimethyl-[1,1′-biphenyl]-3,3′-diyl)bis(4-methyl-5-(pyrrolidin-1-ylmethyl)picolinamide)], in that order: 8.72 and 6.23.
As to `Cc1cc(C(=O)Nc2cccc(-c3cccc(NC(=O)c4cc(C)c(CN5CC[C@@H](O)C5)cn4)c3C)c2C)ncc1CN1CC[C@@H](O)C1` [Example 13, N,N′-(2,2′-dimethyl-[1,1′-biphenyl]-3,3′-diyl)bis(5-(((R)-3-hydroxypyrrolidin-1-yl)methyl)-4-methylpicolinamide)], the negative-log IC50 (pIC50) in test [1] is 9.89. In test [2], the pEC50 is 6.96.
Turning to `Cc1cc(C(=O)Nc2cccc(-c3cccc(NC(=O)c4cc(C)c(CN5CCC(F)(F)C5)cn4)c3C)c2C)ncc1CN1CCC(F)(F)C1` [Example 14, N,N′-(2,2′-dimethyl-[1,1′-biphenyl]-3,3′-diyl)bis(5-((3,3-difluoropyrrolidin-1-yl)methyl)-4-methylpicolinamide)], the pIC50 in test [1] is 6.64.
As for `Cc1cc(C(=O)Nc2cccc(-c3cccc(NC(=O)c4cc(C)c(CNC5CC5)cn4)c3C)c2C)ncc1CNC1CC1` [Example 15, N,N′-(2,2′-dimethyl-[1,1′-biphenyl]-3,3′-diyl)bis(5-((cyclopropylamino)methyl)-4-methyipicolinamide)], the pIC50 in test [1] was 9.08. For the same compound, the pEC50 in test [2] is 6.29.
For `CC(=O)NCCNCc1cnc(C(=O)Nc2cccc(-c3cccc(NC(=O)c4cc(C)c(CNCCNC(C)=O)cn4)c3C)c2C)cc1C` [Example 16, N,N′-(2,2′-dimethyl-[1,1′-biphenyl]-3,3′-diyl)bis(5-(((2-acetamidoethyl)amino)methyl)-4-methylpicolinamide)], in that order: 9.85 and 6.51.
For `Cc1cc(C(=O)Nc2cccc(-c3cccc(NC(=O)c4cc(C)c(CN5CCNC(=O)C5)cn4)c3C)c2C)ncc1CN1CCNC(=O)C1` [Example 17, N,N′-(2,2′-dimethyl-[1,1′-biphenyl]-3,3′-diyl)bis(4-methyl-5-((3-oxopiperazin-1-yl)methyl)picolinamide)], in that order: 8.82 and under 5.00.
For `Cc1cc(C(=O)Nc2cccc(-c3cccc(NC(=O)c4cc(C)c(CN[C@@H]5CCOC[C@H]5O)cn4)c3C)c2C)ncc1CN[C@@H]1CCOC[C@H]1O` [Example 18, N,N′-(2,2′-dimethyl-[1,1′-biphenyl]-3,3′-diyl)bis(5-((((3S,4R)-3-hydroxytetrahydro-2H-pyran-4-yl)amino)methyl)-4-methylpicolinamide)], in that order: 9.47 and 6.68.
Consider `Cc1cc(C(=O)Nc2cccc(-c3cccc(NC(=O)c4cc(C)c(CN[C@H]5CC[C@H](O)CC5)cn4)c3C)c2C)ncc1CN[C@H]1CC[C@H](O)CC1` [Example 19, N,N′-(2,2′-dimethyl-[1,1′-biphenyl]-3,3′-diyl)bis(5-((((1r,4r)-4-hydroxycyclohexyl)amino)methyl)-4-methylpicolinamide)], for which the pIC50 in test [1] was 9.82. The pEC50 in test [2] was 7.07.
For `COC(=O)[C@@H](CO)NCc1cnc(C(=O)Nc2cccc(-c3cccc(NC(=O)c4cc(C)c(CN[C@H](CO)C(=O)OC)cn4)c3C)c2C)cc1C` [Example 20, dimethyl 2,2′-((((((2,2′-dimethyl-[1,1′-biphenyl]-3,3′-diyl)bis (azanediyl))bis(carbonyl))bis(4-methylpyridine-6,3-diyl))bis(methylene))bis(azanediyl))(2R,2′R)-bis(3-hydroxypropanoate)], in that order: 9.44 and 5.38.
Turning to `Cc1cc(C(=O)Nc2cccc(-c3cccc(NC(=O)c4cc(C)c(CN[C@H](CO)C(=O)O)cn4)c3C)c2C)ncc1CN[C@H](CO)C(=O)O` [Example 21, (2R,2′R)-2,2′-((((((2,2′-dimethyl-[1,1′-biphenyl]-3,3′-diyl)bis(azanediyl))bis(carbonyl))bis(4-methylpyridine-6,3-diyl))bis(methylene))bis(azanediyl)) bis(3-hydroxypropaitoic acid)], the pIC50 in test [1] was 9.18. In addition, the negative-log EC50 (pEC50) in test [2] is 7.08.
For `COC(=O)[C@H](CO)NCc1cnc(C(=O)Nc2cccc(-c3cccc(NC(=O)c4cc(C)c(CN[C@@H](CO)C(=O)OC)cn4)c3C)c2C)cc1C` [Example 22, dimethyl 2,2′-((((((2,2′-dimethyl-[1,1′-biphenyl]-3,3′-diyl)bis(azanediyl))bis(carbonyl))bis(4-methylpyridine-6,3-diyl))bis(methylene))bis(azanediyl)) (2S,2′S)-bis(3-hydroxypropanoate)], in that order: 9.55 and 5.29.
For `Cc1cc(C(=O)Nc2cccc(-c3cccc(NC(=O)c4cc(C)c(CN[C@@H](CO)C(=O)O)cn4)c3C)c2C)ncc1CN[C@@H](CO)C(=O)O` [Example 23, (2S,2′S)-2,2′-((((((2,2′-dimethyl-[1,1′-biphenyl]3,3′-diyl)bis(azanediyl))bis(carbonyl))bis(4-methylpyridine-6,3-diyl))bis(methylene))bis(azanediyl))bis (3-hydroxypropanoic acid)], in that order: 9.51 and 6.60.
Turning to `COc1cc(C(=O)Nc2cccc(-c3cccc(NC(=O)c4cc(OC)c(CN5CC6(CCO6)C5)cn4)c3C)c2C)ncc1CN1CC2(CCO2)C1` [Example 57], the pIC50 in test [1] is 9.44.
